Patent US11472788B2, “Benzoimidazoles as selective inhibitors of indoleamine 2,3-dioxygenases” (BEIGENE, LTD., priority 2017, dated 2022)

Assays:
[1] = molecular target: Recombinant IDO1 (Homo sapiens (Human), UniProt P14902); assay: IDO1 enzymatic assay; type: biochemical; conditions: 50 nM IDO1, 1.3 mM D-tryptophan, pH 7.5, read-out: Enzyme assay IC50
Experimental: Recombinant IDO1 was overexpressed and purified from E. coli cells with an N-terminal His tag. IDO1 enzymatic assay was carried out using a methodology similar to described in the literature (J. Biol. Chem. (1980), 255, 1339-1345). The reaction mixture contains 50 nM IDO1, 1.3 mM D-tryptophan, 5 mM L-ascorbic acid, […] methylene Blue, 0.4 mg/mL catalase and compound (or DMSO) in a buffer containing 50 mM potassium phosphate pH 7.5 and 0.1% BSA. After incubation at 24° C. for 1.5 hours, absorbance of the reaction mixture was continuously read at 321 nm to monitor the formation of N′-formylkynurenine by a FULOstar OMEGA plate reader (BMG LABTECH) for 1 hour. The enzymatic activity was determined by measuring the slope of the linear absorbance increase as a function of time. The IC50s are calculated based on remaining enzyme activity in the presence of increasing concentrations of compounds.

[2] = molecular target: cellular IDO1 in HeLa cells (Homo sapiens (Human), UniProt P14902); assay: HeLa Cell-Based IDO1 Kyn (Kynurenine) Production Assay; conditions: IFN-γ induced IDO1, 48 hours incubation, Kyn absorbance at 480 nm
cellular IDO1 in HeLa cells, sequence (P14902 whole entry): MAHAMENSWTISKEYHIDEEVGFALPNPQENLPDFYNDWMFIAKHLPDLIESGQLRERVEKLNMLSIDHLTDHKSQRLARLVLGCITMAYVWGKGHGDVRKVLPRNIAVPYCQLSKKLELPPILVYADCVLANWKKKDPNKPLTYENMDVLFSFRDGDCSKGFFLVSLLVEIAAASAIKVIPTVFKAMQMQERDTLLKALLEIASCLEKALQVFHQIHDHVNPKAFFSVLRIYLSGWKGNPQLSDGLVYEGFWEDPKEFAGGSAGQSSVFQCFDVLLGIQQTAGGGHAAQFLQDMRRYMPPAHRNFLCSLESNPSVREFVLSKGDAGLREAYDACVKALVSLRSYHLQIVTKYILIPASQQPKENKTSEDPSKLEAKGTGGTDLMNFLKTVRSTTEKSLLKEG
Summary of the method: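 Compounds added to HeLa cells together with IFN-γ (100 ng/mL final) and 0.4 mM L-Trp, 48 h at 37 °C. Kynurenine in TCA-deproteinized supernatant measured colorimetrically with 4-(dimethylamino)benzaldehyde at 480 nm; IC50 from four-parameter logistic fit.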

Recombinant IDO1, sequence (P14902 whole entry, species assumed): as the sequence (P14902 whole entry) above

Compound | IC50 [1] | EC50 [2]
Fc1ccc2nccc(C3CCC(Cc4nc5cc(Cl)ccc5[nH]4)CC3)c2c1 (stereo not drawn) [Example A1a, 4-(4-((5-chloro-1H-benzo[d]imidazol-2-yl)methyl)cyclohexyl)-6-fluoroquinoline] | > 10000 nM | 51 nM
Cc1ccc2[nH]c(C[C@H]3CC[C@H](c4ccnc5ccc(F)cc54)CC3)nc2c1 [Example A2a, 6-fluoro-4-((1r,4r)-4-((5-methyl-1H-benzo[d]imidazol-2-yl)methyl)cyclohexyl)quinoline] | > 10000 nM | 241 nM
Cc1ccc2[nH]c(C[C@H]3CC[C@@H](c4ccnc5ccc(F)cc54)CC3)nc2c1 [Example A2b, 6-fluoro-4-((1s,4s)-4-((5-methyl-1H-benzo[d]imidazol-2-yl)methyl)cyclohexyl)quinoline] | > 10000 nM | 53 nM
Fc1ccc2nccc([C@H]3CC[C@H](Cc4nc5cc(C6CC6)ccc5[nH]4)CC3)c2c1 [Example A4a, 4-((1r,4r)-4-((5-cyclopropyl-1H-benzo[d]imidazol-2-yl)methyl)cyclohexyl)-6-fluoroquinoline] | > 10000 nM | 131 nM
Fc1ccc2nccc([C@H]3CC[C@@H](Cc4nc5cc(C6CC6)ccc5[nH]4)CC3)c2c1 [Example A4b, 4-((1s,4s)-4-((5-cyclopropyl-1H-benzo[d]imidazol-2-yl)methyl)cyclohexyl)-6-fluoroquinoline] | > 10000 nM | 13 nM
Fc1ccc2nccc([C@H]3CC[C@H](Cc4nc5cc(F)c(F)cc5[nH]4)CC3)c2c1 [Example A6a, 4-((1r,4r)-4-((5,6-difluoro-1H-benzo[d]imidazol-2-yl)methyl)cyclohexyl)-6-fluoroquinoline] | > 10000 nM | 141 nM
Fc1ccc2nccc([C@H]3CC[C@@H](Cc4nc5cc(F)c(F)cc5[nH]4)CC3)c2c1 [Example A6b, 4-((1s,4s)-4-((5,6-difluoro-1H-benzo[d]imidazol-2-yl)methyl)cyclohexyl)-6-fluoroquinoline] | > 10000 nM | 14 nM
Cc1cc2nc(C[C@H]3CC[C@H](c4ccnc5ccc(F)cc54)CC3)[nH]c2cc1C [Example A9a, 4-((1r,4r)-4-((5,6-dimethyl-1H-benzo[d]imidazol-2-yl)methyl)cyclohexyl)-6-fluoroquinoline] | > 10000 nM | 186 nM
Cc1cc2nc(C[C@H]3CC[C@@H](c4ccnc5ccc(F)cc54)CC3)[nH]c2cc1C [Example A9b, 4-((1s,4s)-4-((5,6-dimethyl-1H-benzo[d]imidazol-2-yl)methyl)cyclohexyl)-6-fluoroquinoline] | > 10000 nM | 24 nM
Clc1ccc2[nH]c(C[C@H]3CC[C@H](c4ccnc5ccccc54)CC3)nc2c1 [Example A10a, 4-((1r,4r)-4-((5-chloro-1H-benzo[d]imidazol-2-yl)methyl)cyclohexyl)quinoline] | > 10000 nM | 91 nM
Clc1ccc2[nH]c(C[C@H]3CC[C@@H](c4ccnc5ccccc54)CC3)nc2c1 [Example A10b, 4-((1s,4s)-4-((5-chloro-1H-benzo[d]imidazol-2-yl)methyl)cyclohexyl)quinoline] | > 10000 nM | 10 nM
Fc1ccc2nccc(C3CCC(Cc4nc5cc(Cl)c(Cl)cc5[nH]4)CC3)c2c1 (stereo not drawn) [Example A12, 4-(4-((5,6-dichloro-1H-benzo[d]imidazol-2-yl)methyl)cyclohexyl)-6-fluoroquinoline] | > 10000 nM | 11 nM
COC(=O)c1ccc2[nH]c(CC3CCC(c4ccnc5ccc(F)cc45)CC3)nc2c1 (stereo not drawn) [Example A13, methyl 2-((4-(6-fluoroquinolin-4-yl)cyclohexyl)methyl)-1H-benzo[d]imidazole-5-carboxylate] | > 10000 nM | 8.4 nM
O=C(O)c1ccc2[nH]c(CC3CCC(c4ccnc5ccc(F)cc45)CC3)nc2c1 (stereo not drawn) [Example A14, 2-((4-(6-fluoroquinolin-4-yl)cyclohexyl)methyl)-1H-benzo[d]imidazole-5-carboxylic acid] | > 10000 nM | > 10000 nM
Clc1ccc2[nH]c(CC3CCC(c4ccc5ccccc5n4)CC3)nc2c1 (stereo not drawn) [Example A18, 2-(4-((5-chloro-1H-benzo[d]imidazol-2-yl)methyl)cyclohexyl)quinoline] | 5300 nM | 50 nM

The remaining lines, values ahead:

IC50 [1] | EC50 [2] | Compound
> 10000 nM | 8 nM | 4-((1s,4s)-4-((5-chloro-1H-benzo[d]imidazol-2-yl)methyl)cyclohexyl)-6-fluoroquinoline [Example A1b]
> 10000 nM | 8.2 nM | Clc1ccc2[nH]c(CC3CCC(c4cnc5ccccc5c4)CC3)nc2c1 (stereo not drawn) [Example A19, 3-(4-((5-chloro-1H-benzo[d]imidazol-2-yl)methyl)cyclohexyl)quinoline]
> 10000 nM | 89 nM | c1ccc2nc(C3CCC(Cc4nc5ccccc5[nH]4)CC3)ccc2c1 (stereo not drawn) [Example A20, 2-(4-((1H-benzo[d]imidazol-2-yl)methyl)cyclohexyl)quinoline]
> 10000 nM | 131 nM | COc1ccc2[nH]c(CC3CCC(c4ccc5ccccc5n4)CC3)nc2c1 (stereo not drawn) [Example A21, 2-(4-((5-methoxy-1H-benzo[d]imidazol-2-yl)methyl)cyclohexyl)quinoline]
> 10 nM | 148 nM | Clc1ccc2[nH]c(CC3CCC(c4cccc5ncccc45)CC3)nc2c1 (stereo not drawn) [Example A22, 5-(4-((5-chloro-1H-benzo[d]imidazol-2-yl)methyl)cyclohexyl)quinoline]
> 10000 nM | 56 nM | Clc1ccc2[nH]c(C[C@H]3CC[C@H](c4ccc5ncccc5c4)CC3)nc2c1 [Example A23a, 6-((1r,4r)-4-((5-chloro-1H-benzo[d]imidazol-2-yl)methyl)cyclohexyl)quinoline]
3250 nM | 24 nM | Clc1ccc2[nH]c(C[C@H]3CC[C@@H](c4ccc5ncccc5c4)CC3)nc2c1 [Example A23b, 6-((1s,4s)-4-((5-chloro-1H-benzo[d]imidazol-2-yl)methyl)cyclohexyl)quinoline]
> 10000 nM | 44 nM | Fc1ccc([C@H]2CC[C@H](Cc3nc4cc(Cl)ccc4[nH]3)CC2)cc1 [Example A30a, 5-chloro-2-(((1r,4r)-4-(4-fluorophenyl)cyclohexyl)methyl)-1H-benzo[d]imidazole]
> 10000 nM | 39 nM | Fc1ccc([C@H]2CC[C@@H](Cc3nc4cc(Cl)ccc4[nH]3)CC2)cc1 [Example A30b, 5-chloro-2-(((1s,4s)-4-(4-fluorophenyl)cyclohexyl)methyl)-1H-benzo[d]imidazole]
8100 nM | 143 nM | c1ccc(C2CCC(Cc3nc4ccccc4[nH]3)CC2)cc1 (stereo not drawn) [Example A32, 2-((4-phenylcyclohexyl)methyl)-1H-benzo[d]imidazole]
> 10000 nM | > 10000 nM | FC(F)(F)c1ccc2[nH]c(C[C@H]3CC[C@H](c4ccccc4)CC3)nc2c1 [Example A33a, 2-(((1r,4r)-4-phenylcyclohexyl)methyl)-5-(trifluoromethyl)-1H-benzo[d]imidazole]
8200 nM | 8.2 nM | FC(F)(F)c1ccc2[nH]c(C[C@H]3CC[C@@H](c4ccccc4)CC3)nc2c1 [Example A33b, 2-(((1s,4s)-4-phenylcyclohexyl)methyl)-5-(trifluoromethyl)-1H-benzo[d]imidazole]
8000 nM | 168 nM | Clc1ccc2[nH]c(C[C@H]3CC[C@H](c4ccccc4)CC3)nc2c1 [Example A34a, 5-chloro-2-(((1r,4r)-4-phenylcyclohexyl)methyl)-1H-benzo[d]imidazole]
4800 nM | 87 nM | Clc1ccc2[nH]c(C[C@H]3CC[C@@H](c4ccccc4)CC3)nc2c1 [Example A34b, 5-chloro-2-(((1s,4s)-4-phenylcyclohexyl)methyl)-1H-benzo[d]imidazole]
– | 1240 nM | NC(=O)c1ccc2[nH]c([C@H]3CC[C@@H](c4ccnc5ccc(F)cc54)CC3)nc2c1 [Example C9b, 2-((1s,4s)-4-(6-fluoroquinolin-4-yl)cyclohexyl)-1H-benzo[d]imidazole-5-carboxamide]
– | 7 nM | Fc1ccc2nccc(C3CCC(CCc4nc5cc(C6CC6)ccc5[nH]4)CC3)c2c1 (stereo not drawn) [Example C10, 4-(4-(2-(5-cyclopropyl-1H-benzo[d]imidazol-2-yl)ethyl)cyclohexyl)-6-fluoroquinoline]
– | 12 nM | Fc1ccc2nccc([C@H]3CC[C@@H](CCc4nc5cc(Cl)ccc5[nH]4)CC3)c2c1 [Example C11, 4-((1r,4r)-4-(2-(5-chloro-1H-benzo[d]imidazol-2-yl)ethyl)cyclohexyl)-6-fluoroquinoline]
– | 1090 nM | Clc1ccc2nc(C3CC4CC3CC4c3ccccc3)[nH]c2c1 (stereo not drawn) [Example D1, 6-chloro-2-(5-phenylbicyclo[2.2.1]heptan-2-yl)-1H-benzo[d]imidazole]
– | 69 nM | Clc1ccc2[nH]c(CCC3CC4CC3CC4c3ccccc3)nc2c1 (stereo not drawn) [Example D2, 5-chloro-2-(2-(5-phenylbicyclo[2.2.1]heptan-2-yl)ethyl)-1H-benzo[d]imidazole]
